Laboratory results as given in PMC9225712, “Rational design of biodegradable sulphonamide candidates treating septicaemia by synergistic dual inhibition of COX-2/PGE2 axis and DHPS enzyme” (Journal of Enzyme Inhibition and Medicinal Chemistry, 2022).

Experiments:
ovine COX-1 = target: T1, ovine COX-1 (Ovis aries, UniProt P05979); experiment: In vitro COX-1 enzymatic assay (Cayman kit 560131); format: biochemical; details: Mean ± SEM of triplicate determinations
T1 construct: purchased Cayman Chemicals Inc. 560131
T1 sequence (P05979 25-600): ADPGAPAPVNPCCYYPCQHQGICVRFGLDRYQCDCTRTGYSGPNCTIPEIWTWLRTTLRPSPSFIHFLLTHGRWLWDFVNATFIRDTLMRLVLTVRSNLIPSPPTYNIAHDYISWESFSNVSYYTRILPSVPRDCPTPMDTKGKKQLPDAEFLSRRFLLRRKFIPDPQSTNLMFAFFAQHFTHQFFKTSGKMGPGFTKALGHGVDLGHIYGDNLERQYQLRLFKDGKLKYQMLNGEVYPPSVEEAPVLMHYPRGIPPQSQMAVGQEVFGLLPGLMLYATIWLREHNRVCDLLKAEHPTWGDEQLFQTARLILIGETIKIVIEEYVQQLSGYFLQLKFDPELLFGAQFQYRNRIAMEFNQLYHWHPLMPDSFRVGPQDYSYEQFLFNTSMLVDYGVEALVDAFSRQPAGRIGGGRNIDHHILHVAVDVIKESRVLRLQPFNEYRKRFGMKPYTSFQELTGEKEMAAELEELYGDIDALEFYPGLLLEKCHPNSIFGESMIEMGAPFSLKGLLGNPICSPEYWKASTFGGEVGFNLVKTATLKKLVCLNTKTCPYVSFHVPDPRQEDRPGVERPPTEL

gastric layers = experiment: Gastric ulcerogenic activity; details: fasted male Wistar rats, oral 30 µmol/kg twice at 4 h interval
[1] = tested on: Salmonella typhi (RCMB 0100104); experiment: Inhibition zone, agar cup diffusion; format: cell-based; details: Salmonella enterica, 24 h, read-out: inhibition zones (IZ) S. typhi
[2] = tested on: Shigella dysenteriae (RCMB 0100542); experiment: Inhibition zone, agar cup diffusion; format: cell-based; details: RCMB0100542, 24 h, read-out: inhibition zones (IZ) S. dysenteriae
[3] = tested on: Gram-positive and Gram-negative bacteria; experiment: In vitro antibacterial screening, whole panel; format: cell-based; details: whole bacterial panel, result in words
PGE2 = experiment: Estimation of rat plasma PGE2; details: po 10 µmol/kg b.wt., 8 h after carrageenan
[4] = tested on: Staphylococcus aureus (RCMB 0100183); experiment: Inhibition zone, agar cup diffusion; details: RCMB0100183, 24 h, read-out: inhibition zones (IZ) S. aureus
[5] = tested on: Staphylococcus epidermidis (RCMB 0100183); experiment: Inhibition zone, agar cup diffusion; details: RCMB0100183, 24 h, read-out: inhibition zones (IZ) S. epidermidis
[6] = tested on: Streptococcus mutans (RCMB 0100172); experiment: Inhibition zone, agar cup diffusion; details: RCMB0100172, 24 h, read-out: inhibition zones (IZ) S. mutans
[7] = tested on: Bacillus subtilis (RCMB 0100162); experiment: Inhibition zone, agar cup diffusion; details: RCMB0100162, 24 h, read-out: inhibition zones (IZ) B. subtillis
[8] = tested on: Pseudomonas aeruginosa (RCMB 0100243); experiment: Inhibition zone, agar cup diffusion; details: RCMB0100243, 24 h, read-out: inhibition zones (IZ) P.aeruginosa
[9] = tested on: Escherichia coli (RCMB 010052); experiment: Inhibition zone, agar cup diffusion; details: RCMB010052, 24 h, read-out: inhibition zones (IZ) E.coli
[10] = tested on: Proteus vulgaris (RCMB 010085); experiment: Inhibition zone, agar cup diffusion; details: RCMB010085, 24 h, read-out: inhibition zones (IZ) P. vulgaris
[11] = tested on: carrageenan-induced paw edoema; experiment: Carrageenan-induced paw edoema in mice
human recombinant COX-2 = target: T2, human recombinant COX-2 (Homo sapiens, UniProt P35354); experiment: In vitro COX-2 enzymatic assay (Cayman kit 560131)
T2 sequence (P35354 18-604): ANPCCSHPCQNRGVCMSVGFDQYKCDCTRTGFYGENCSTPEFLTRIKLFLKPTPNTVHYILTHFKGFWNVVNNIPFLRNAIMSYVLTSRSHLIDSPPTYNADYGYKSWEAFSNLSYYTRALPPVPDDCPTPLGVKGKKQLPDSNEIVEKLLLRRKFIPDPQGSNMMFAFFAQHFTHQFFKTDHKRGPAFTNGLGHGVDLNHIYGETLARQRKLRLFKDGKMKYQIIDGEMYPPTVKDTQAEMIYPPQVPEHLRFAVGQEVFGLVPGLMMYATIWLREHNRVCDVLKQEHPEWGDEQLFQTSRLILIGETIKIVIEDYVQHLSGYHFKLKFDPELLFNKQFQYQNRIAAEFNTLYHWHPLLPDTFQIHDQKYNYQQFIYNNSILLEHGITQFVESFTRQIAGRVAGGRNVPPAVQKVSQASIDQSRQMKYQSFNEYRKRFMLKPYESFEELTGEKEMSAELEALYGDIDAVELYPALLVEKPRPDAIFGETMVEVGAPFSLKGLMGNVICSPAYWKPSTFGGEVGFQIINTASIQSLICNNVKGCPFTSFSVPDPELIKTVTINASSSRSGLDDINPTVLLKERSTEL

E. coli C11 = details: mice, challenge dose 7.1x10^3 CFU/mouse ip, intragastric once a day for 7 days, survival

O=C(c1cc(/N=N/c2ccc(S(=O)(=O)Nc3ncccn3)cc2)ccc1O)N1CCOCC1 [Compound 5n, 4-((4-Hydroxy-3-(morpholine-4-carbonyl)phenyl)diazenyl)-N-(pyrimidin-2-yl) benzenesulfonamide]
IC50 (ovine COX-1): 10.6 ± 0.08 µM | Gastric ulcerogenic effect, histopathological examination of gastric layers (gastric layers): gastrointestinal safety profile | zone of inhibition at 1000 µg/mL [1]: 14 mm | zone of inhibition at 1000 µg/mL [2]: 24 mm | in vitro antibacterial activity [3]: weak in vitro antibacterial activity | % inhibition of PGE2-production (PGE2; rat serum): 55.18% | PGE2 serum conc. (PGE2; rat, Mean ± SEM, n = 5): 591.842 ± 5.96 pg/mL | zone of inhibition at 1000 µg/mL [4]: 16 mm | zone of inhibition at 1000 µg/mL [5]: 33 mm | zone of inhibition at 1000 µg/mL [6]: 28 mm | zone of inhibition at 1000 µg/mL [7]: 17 mm | zone of inhibition at 1000 µg/mL [8]: 14 mm | zone of inhibition at 1000 µg/mL [9]: 17 mm | zone of inhibition at 1000 µg/mL [10]: 18 mm | ED50 ([11]; Mus musculus, 8 h, read-out: ED50 (95% confidence level)): 14.4 µmol/kg | Thickness of edoema 0h ([11]; mice, po 10 µmol/kg b.wt., 0 h (before carrageenan), Mean ± SEM, n = 5): 0.66 ± 0.004 mm | percentage anti-inflammatory activity (AI%) 2h ([11]; mice, po 10 µmol/kg b.wt., 2 h): (-8.42%) | Thickness of edoema 2h ([11]; mice, po 10 µmol/kg b.wt., 2 h after carrageenan, Mean ± SEM, n = 5): 1.03 ± 0.03 mm | percentage anti-inflammatory activity (AI%) 4h ([11]; mice, po 10 µmol/kg b.wt., 4 h): (10.42%) | Thickness of edoema 4h ([11]; mice, po 10 µmol/kg b.wt., 4 h after carrageenan, Mean ± SEM, n = 5): 1.29 ± 0.01 mm | percentage anti-inflammatory activity (AI%) 6h ([11]; mice, po 10 µmol/kg b.wt., 6 h): (51.71%) | Thickness of edoema 6h ([11]; mice, po 10 µmol/kg b.wt., 6 h after carrageenan, Mean ± SEM, n = 5): 0.99 ± 0.05 mm | Thickness of edoema 8h ([11]; mice, po 10 µmol/kg b.wt., 8 h after carrageenan, Mean ± SEM, n = 5): 0.90 ± 0.01 mm | IC50 (human recombinant COX-2): 0.07 ± 0.0005 µM | SI COX-1/COX-2 (human recombinant COX-2; COX-2 selectivity index: COX-1 IC50/COX-2 IC50): 153.6 | ED50 (S. aureus Smith; Staphylococcus aureus, in Mus musculus, read-out: ED50 against S. aureus infection): 353 to 413 µmol/kg | ED50, protective effect against bacteremic infection, Staphylococcus aureus (S. aureus Smith; mice, challenge dose 9.5x10^6 CFU/mouse ip, intragastric once a day for 7 days, survival): 397.6 µmol/kg/day | ED50, protective effect against bacteremic infection, Escherichia coli (E. coli C11): 367.1 µmol/kg/day
